“And” between values parts separate entries of the source, which are not always exact repeats. Identical values can stand only once. “Also recorded” adds a separate entry of the source. Like-named read-outs stand apart in the source and are kept apart here.
How the values were obtained:
[1] = Cell cytotoxicity assay (CellTiter-Glo); conditions: African green monkey, CC50, 24 h
SARS-CoV-2 Nsp15 [2] = molecular target: T1, SARS-CoV-2 Nsp15 (Severe acute respiratory syndrome coronavirus 2, UniProt P0DTD1); assay: Nsp15 native RNA cleavage assay (denaturing PAGE, SYBR Gold); assay type: biochemical
SARS-CoV-2 Nsp15 [3] = molecular target: T1, SARS-CoV-2 Nsp15; assay: Reversibility: reaction progress after dilution of preincubated enzyme-inhibitor complex; assay type: biochemical; conditions: 60 min preincubation, 1:50 dilution
SARS-CoV-2 Nsp15 [4] = molecular target: T1, SARS-CoV-2 Nsp15; assay: Nsp15 FRET-based activity assay; assay type: biochemical; conditions: for Nsp15 inhibition with 5′FAM and 5′Cy5 substrates and quenching: compounds at 25 μM and 50 μM
SARS-CoV-2 = assay: microbe, parasite or virus in culture; assay type: cell-based; conditions: for Viral titers at a single subtoxic concentration: MOI = 0.1, 24 h postinfection, vs DMSO; for Selectivity index: from CC50 and cellular IC50 in Vero CCL-81 cells
SARS-CoV-2 Nsp15 [5] = molecular target: T1, SARS-CoV-2 Nsp15; assay: biochemical; assay type: biochemical
SARS-CoV-2 Nsp15 [6] = molecular target: T1, SARS-CoV-2 Nsp15; assay: FRET assay with nonionic detergent (colloidal aggregate test); assay type: biochemical; conditions: 0.01% Triton-X or CHAPS
MERS Nsp15 = MERS Nsp15 (Middle East respiratory syndrome-related coronavirus, UniProt K9N7C7); assay type: biochemical
SARS-CoV-1 Nsp15 = SARS-CoV-1 Nsp15 (Severe acute respiratory syndrome coronavirus, UniProt P0C6X7); assay type: biochemical
SARS-CoV-2 Nsp15 [7] = molecular target: T1, SARS-CoV-2 Nsp15
SARS-CoV-2 Nsp15 [8] = molecular target: T1, SARS-CoV-2 Nsp15; assay: MALDI-TOF mass spectrometry of Nsp15 preincubated with compound; conditions: preincubation with fivefold molar excess of compound
SARS-CoV-2 Nsp15 [9] = molecular target: T1, SARS-CoV-2 Nsp15; assay: Effect of DTT on compound inhibition of Nsp15; assay type: biochemical; conditions: 10 mM vs 1 mM DTT
in vitro = conditions: African green monkey
Calu-3 cells = test system: Calu-3 cells; set-up: method as in PMID 33886614; conditions: cited from earlier work
[10] = 31-nt single rU RNA, 1 h at 37 °C
[11] = IC50, Nsp15 activity, FRET assay, Nsp15 1 ng/μl, ~12 min at 37 °C
[12] = Severe acute respiratory syndrome coronavirus 2, 24 h, read-out: IC50, viral inhibition, Vero CCL-81 cells, MOI = 0.1, 24 h infection
[13] = read-out: IC50, viral inhibition, Vero CCL-81 cells, MOI = 0.1, 24 h infection
[14] = RNA substrate titration 0 to 10 µM
[15] = extra sum-of-squares F test, highest inhibitor dose

MERS Nsp15, sequence (K9N7C7 6433-6775 limits assumed): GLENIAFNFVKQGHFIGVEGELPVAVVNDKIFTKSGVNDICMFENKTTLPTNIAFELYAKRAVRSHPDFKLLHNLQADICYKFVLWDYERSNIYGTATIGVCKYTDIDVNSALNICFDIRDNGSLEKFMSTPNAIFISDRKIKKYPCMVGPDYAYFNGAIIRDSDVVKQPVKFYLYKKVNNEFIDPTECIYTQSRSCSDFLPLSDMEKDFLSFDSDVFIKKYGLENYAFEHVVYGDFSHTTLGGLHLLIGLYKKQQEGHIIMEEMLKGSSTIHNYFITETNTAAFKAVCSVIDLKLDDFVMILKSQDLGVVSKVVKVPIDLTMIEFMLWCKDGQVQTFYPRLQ

Compound | CC50 at 24 h ([1]; Fig. S15) [µM] | Inhibition of native RNA substrate cleavage (SARS-CoV-2 Nsp15 [2]; [10]) | Reversibility of inhibition (SARS-CoV-2 Nsp15 [3]) | IC50 (SARS-CoV-2 Nsp15 [4]; [11]) | Nsp15 inhibition with 5′FAM and 5′Cy5 substrates and quenching (SARS-CoV-2 Nsp15 [4]) | Viral titers at a single subtoxic concentration (SARS-CoV-2; Vero CCL-81 cells) | Ki (SARS-CoV-2 Nsp15 [5]) [µM] | Kinetic mechanism / predicted type of inhibition (SARS-CoV-2 Nsp15 [5]; [14]) | Km diff. vs DMSO (SARS-CoV-2 Nsp15 [5]; [15]) | Vmax diff. vs DMSO (SARS-CoV-2 Nsp15 [5]; [15]) | Change of Nsp15 activity with inhibitor when detergent is present (SARS-CoV-2 Nsp15 [6]) | Inhibition of MERS Nsp15 (MERS Nsp15) | other results
O=C1/C(=C/c2cc([N+](=O)[O-])cc(Br)c2O)SC(=S)N1Cc1ccccc1 [CID5675221] | > 240 | dose-dependent effects | Nsp15 activity was restored | ~20 µM and 20.7 µM | inhibited Nsp15 using either substrate, without appreciable quenching | significantly reduced viral titers | 6.71 ± 2.31 | mixed mechanisms of inhibition | Yes | Yes | increase in Nsp15 activity |  | CC50 at 24 h ([1]; measured in parallel with viral inhibition, Fig. 6): 290 ± 28 µM; IC50 (SARS-CoV-2; [12]): 19 ± 3.9 µM; Selectivity index (SARS-CoV-2): ~15; IC50 (SARS-CoV-2; [13]): ~20 µM and < 20 µM; Vmax (best-fit) (SARS-CoV-2 Nsp15 [5]; inhibitor 15µM): 0.21 µM/min; Vmax (best-fit) (SARS-CoV-2 Nsp15 [5]; inhibitor 30µM): 0.17 µM/min
CCC(CC)COC(=O)[C@H](C)N[P@](=O)(OC[C@H]1O[C@@](C#N)(c2ccc3c(N)ncnn23)[C@H](O)[C@@H]1O)Oc1ccccc1 [remdesivir] |  |  |  |  |  | significantly reduced viral titers |  |  |  |  |  |  | 
O=C(N/N=C/c1ccccc1O)c1ccc(O)c(O)c1 [CID5266986] | 15 to 42 | dose-dependent effects | Nsp15 activity was restored | ~78 µM and 78 µM | inhibited Nsp15 using either substrate, without appreciable quenching | not statistically different from the control | 64.9 ± 16.9 | mixed mechanisms of inhibition | Yes | Yes | increase in Nsp15 activity | only modest effects | Vmax (best-fit) (SARS-CoV-2 Nsp15 [5]; inhibitor 125µM): 0.22 µM/min; Vmax (best-fit) (SARS-CoV-2 Nsp15 [5]; inhibitor 175µM): 0.21 µM/min
Oc1c(Cl)cc(Cl)c(Cl)c1Cc1c(O)c(Cl)cc(Cl)c1Cl [hexachlorophene, reference compound] |  |  | Nsp15 activity was restored |  | inhibited Nsp15 using either substrate, without appreciable quenching | significantly reduced viral titers | 1.23 ± 0.3 |  |  | Yes | increase in Nsp15 activity |  | Inhibition of native RNA substrate cleavage (SARS-CoV-2 Nsp15 [2]): dose-dependent effects; IC50 (SARS-CoV-2 Nsp15 [4]; IC50, Nsp15 activity): ~1 µM and 1.6 µM and 1 to 2 µM; Inhibition of SARS-CoV-1 Nsp15 (SARS-CoV-1 Nsp15): less potent; IC50 (SARS-CoV-2; [12]): 0.91 ± 0.044 µM; IC50 (SARS-CoV-2; [13]): ~1 µM; Kinetic mechanism / predicted type of inhibition (SARS-CoV-2 Nsp15 [5]): mixed mechanisms of inhibition; Km diff. vs DMSO (SARS-CoV-2 Nsp15 [5]): Yes; Vmax (best-fit) (SARS-CoV-2 Nsp15 [5]; inhibitor 3µM): 0.24 µM/min; Vmax (best-fit) (SARS-CoV-2 Nsp15 [5]; inhibitor 6µM): 0.19 µM/min; Kinetic mechanism / predicted type of inhibition (SARS-CoV-2 Nsp15 [5]; listed as Hexachlorophene): Mixed
5′-FAM-CAACUAAACGAAC-BHQ1-3′ [RNA2] |  |  |  |  |  |  |  |  |  |  |  |  | Vmax (SARS-CoV-2 Nsp15 [7]): ~0.3 µM/min; Km (SARS-CoV-2 Nsp15 [7]; read-out: Km of substrate): ~3 µM
Oc1ccc2ccccc2c1SSc1c(O)ccc2ccccc12 [IPA-3, reference compound] |  | dose-dependent effects | irreversible |  | inhibited Nsp15 using either substrate, without appreciable quenching | significantly reduced viral titers |  | noncompetitive | No | Yes | increase in Nsp15 activity | only modest effects; also recorded: reduced effect | Peak shift of Nsp15 versus apoprotein (SARS-CoV-2 Nsp15 [8]): ~333 Da; IC50 (SARS-CoV-2 Nsp15 [4]; FRET assay, Nsp15 1 ng/μl, ~12 min at 37 °C, read-out: IC50, Nsp15 activity): ~7 µM and 6.8 µM; Effect of excess DTT on inhibition (SARS-CoV-2 Nsp15 [9]): excess DTT nearly completely reversed inhibition; CC50 at 24 h (in vitro): 43 ± 4.8 µM; Inhibition of SARS-CoV-1 Nsp15 (SARS-CoV-1 Nsp15): equal potency; IC50 (SARS-CoV-2; Severe acute respiratory syndrome coronavirus 2, 24 h, Vero CCL-81 cells, MOI = 0.1, 24 h infection, read-out: IC50, viral inhibition): 8.5 ± 1.1 µM; IC50 (SARS-CoV-2; Vero CCL-81 cells, MOI = 0.1, 24 h infection, read-out: IC50, viral inhibition): 10 µM; Selectivity index (SARS-CoV-2): ~5; Ki (SARS-CoV-2 Nsp15 [5]; fit to Michaelis-Menten inhibition models, read-out: Computed Ki ± SE): 10.8 ± 0.87 µM; Vmax (best-fit) (SARS-CoV-2 Nsp15 [5]; inhibitor 5µM): 0.23 µM/min; Vmax (best-fit) (SARS-CoV-2 Nsp15 [5]; inhibitor 20µM): 0.11 µM/min
CC(=O)Nc1ccc(NS(=O)(=O)c2ccc3c(c2)C(=O)c2ccccc2C3=O)cc1 [CID5220994] | 15 to 42 | dose-dependent effects | Nsp15 activity was restored | ~50 µM and 50.9 µM | inhibited Nsp15 using either substrate, without appreciable quenching | not statistically different from the control | 72.9 ± 11.6 | competitive with substrate | Yes | No | higher increase in activity | only modest effects | Vmax (best-fit) (SARS-CoV-2 Nsp15 [5]; inhibitor 50µM): 0.31 µM/min; Vmax (best-fit) (SARS-CoV-2 Nsp15 [5]; inhibitor 100µM): 0.28 µM/min
Exebryl-1 |  |  |  |  |  |  |  |  |  |  |  |  | EC50 (Calu-3 cells): ~65 µM
Nc1c(S(=O)(=O)O)cc(Nc2ccc(Nc3nc(Cl)nc(Nc4cccc(S(=O)(=O)O)c4)n3)c(S(=O)(=O)O)c2)c2c1C(=O)c1ccccc1C2=O [Reactive Blue 2, reference compound] |  | produced a fluorescent artifact |  |  | inhibited Nsp15 using either substrate, without appreciable quenching |  |  |  |  |  |  |  | 
CC1(C)CCC2=C(O1)c1ccccc1C(=O)C2=O [β-lapachone, reference compound] |  |  |  |  | inhibited Nsp15 using either substrate, without appreciable quenching |  |  |  |  |  |  |  | 
